In one data set the target is T1, Recombinant MYT1 protein (Homo sapiens, UniProt Q99640).
T1 sequence (Q99640 1-499): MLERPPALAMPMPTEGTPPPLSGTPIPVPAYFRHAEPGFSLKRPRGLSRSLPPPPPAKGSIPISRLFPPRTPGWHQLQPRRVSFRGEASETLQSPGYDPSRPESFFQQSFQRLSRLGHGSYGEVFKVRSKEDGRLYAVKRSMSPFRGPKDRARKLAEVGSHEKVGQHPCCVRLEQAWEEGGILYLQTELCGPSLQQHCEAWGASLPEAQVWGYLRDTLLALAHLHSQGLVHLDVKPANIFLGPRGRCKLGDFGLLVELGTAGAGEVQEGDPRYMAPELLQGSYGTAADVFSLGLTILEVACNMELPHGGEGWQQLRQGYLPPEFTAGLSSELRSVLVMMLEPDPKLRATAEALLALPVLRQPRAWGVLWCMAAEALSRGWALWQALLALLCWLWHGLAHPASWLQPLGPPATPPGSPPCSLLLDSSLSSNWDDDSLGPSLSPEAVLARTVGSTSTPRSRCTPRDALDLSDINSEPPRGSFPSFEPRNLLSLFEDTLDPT
Nature of the data set: In vitro assay for inhibiting MYT1 kinase activity (ADP-GLO). In kind it is biochemical. The following applies: 10 μM ATP, read-out: Inhibitory activity against recombinant protein MYT1 IC50. The procedure:
Recombinant MYT1 protein and the compounds were pre-incubated at room temperature for 15 min, and 10 μM ATP was then added to start the reaction. The mixture was incubated at room temperature for another 60 min, and the ADP-GLO reagent from Promega was then added. The resulting mixture was incubated in the dark for 40 min, a detection solution was then added, and the mixture was incubated for another 45-60 min. The chemiluminescence was determined using ENVISION. The inhibition rate and IC50 were calculated compared to the DMSO group.
(In general: ADP-Glo turns the ADP formed in a reaction into a luminescent signal.)

Data set [1] deals with MIA PaCa-2 cells. The data set is described as follows: In vitro anti-proliferative activity against MIA PaCa-2 cells (compound alone). In kind it is cell-based. The following applies: intracellular ATP content. The procedure:
MIA PaCa-2 cells were seeded on a 384-well plate at 3000 cells/well. After overnight adherence culture, DMSO or the compounds serially diluted 1:5 from 10 µM were added. The viability was assessed 72 h after dosing by measuring the intracellular ATP content. The inhibition percentage of viable cells by the compounds was calculated by comparing with the DMSO group, and the IC50 value was calculated.

In data set [2] the test system is MIA PaCa-2 cells. Nature of the data set: In vitro anti-proliferative activity in combination with gemcitabine against MIA PaCa-2 cells. It counts as cell-based. The following applies: read-out: Anti-proliferative activity against MIA PaCa-2 cells (20 nM gemcitabine) IC50; with 20 nM gemcitabine, 72 h, intracellular ATP content. The procedure: MIA PaCa-2 cells were seeded on a 384-well plate at 3000 cells/well, and 20 nM gemcitabine was added. After overnight adherence culture, DMSO or the compounds serially diluted 1:5 from 1000 nM were added. The viability was assessed 72 h after dosing by measuring the intracellular ATP content. The inhibition percentage of viable cells by the compounds was calculated by comparing with the DMSO group, and the IC50 value was calculated.

The subject of data set [3] is MDCK cells (MDCK wild type). The data set is described as follows: In vitro permeability experiment, MDCK wild type. Conditions: MDCK-Wild type, 5 μM, 90 min. The procedure:
(§1) In vitro passive permeability or the ability to serve as a P-glycoprotein (P-gp) transport substrate was tested using MDCK cells (MDCK wild type) or MDCK cells stably transduced with MDR1 (MDCK-MDR1), respectively. The permeability experiment was performed in duplicate in a transwell system at a single concentration (5 μM). The cells were incubated for 90 min. Apical-to-basolateral (A to B, A-B) transport and basolateral-to-apical (B to A, B-A) transport of the corresponding compound were determined, and the permeation rate (apparent permeability) (Papp×10^−6 cm/sec) and efflux ratio (Papp (B-A)/Papp (A-B)) of the test compound were calculated.

For data set [4], the system named is MDCK cells stably transduced with MDR1 (MDCK-MDR1). Nature of the data set: In vitro permeability experiment, MDCK-MDR1. Conditions: 5 μM, 90 min. The procedure:
as §1

The nature of data set [5]: In vivo pharmacokinetic experiment. The following applies: mice, oral administration 10 mg/kg. Details: species or system CD-1 female mice. The procedure: CD-1 female mice aged 7 to 10 weeks were intravenously administered and orally administered at a dose of 2 mg/kg and 10 mg/kg, respectively. The mice were fasted for at least 12 h before the administration and given food 4 h after the administration, and they were given ad libitum access to water during the experiment. On the day of the experiment, animals in the intravenous group were administered the corresponding compound by single injection via the tail vein at an administration volume of 10 mL/kg. Animals in the oral group were administered the corresponding compound by single intragastric injection at an administration volume of 10 mL/kg. The animals were weighed before administration, and the administration volume was calculated according to the body weight. The sample collection time was 0.083 h (injection group), 0.167 h, 0.5 h, 1 h, 2 h, 4 h, 8 h, and 24 h. About 200 μL of whole blood was collected through the submaxillary venous plexus at each time point and used to prepare plasma for concentration determination by high-performance liquid chromatography-tandem mass spectrometry (LC-MS/MS). All animals were euthanized with CO2 anesthesia after the PK samples were collected at the last time point. The plasma concentrations were processed using a non-compartmental model of Phoenix WinNonlin™ version 8.3 (Certara) pharmacokinetic software, and the pharmacokinetic parameters were calculated using a linear-log trapezoidal method.

A short description of data set [6]: In vitro solubility experiment. The following applies: thermodynamic from solid. It counts as physicochemical. The procedure:
(§2) Preparation of a standard curve: 10.01 mg of sample was weighed out and placed in a volumetric flask, and the volume was brought to 10 mL with acetonitrile/water (v/v, 9/1) to prepare 1.001 mg/mL of standard solution; the standard solution was then serially diluted to 0.5005 mg/mL, 0.1001 mg/mL, 0.05005 mg/mL, 0.01001 mg/mL, and 0.001001 mg/mL to generate the standard curve, and a linear equation was fitted by taking the peak area of the sample as a vertical axis and the concentration as a horizontal axis. Solubility and stability test: 15 mg of sample was added to 3 mL of vehicle (FaSSIF, FeSSIF, SGF, or water) to prepare a corresponding suspension at a target concentration of 5 mg/mL. The prepared suspension was stirred on a shaker (800 rpm) at 37° C. for 0.5 h, and the suspension was then filtered. The filtrate was diluted with a diluent to a corresponding multiple so that the peak height could not exceed the standard curve, and the solubility and purity were detected using HPLC.

Data set [7] in a line: In vitro stability experiment (HPLC purity of filtrate). In kind it is physicochemical. The procedure: as §2
[8] abbreviates: FaSSIF, initial pH 6.52, 37° C.
Setting [9] is: FeSSIF, initial pH 4.98, 37° C.

Structures are written as SMILES. In brackets after ≈: the same amount, converted by molar mass.

The source of these data is patent US12122774B2, “Compounds as MYT1 inhibitors” (WIGEN BIOMEDICINE TECHNOLOGY (SHANGHAI) CO., LTD., priority 2022, dated 2024).

For `Cc1cc2c(C(N)=O)c(N)n(-c3c(C)c(O)cc4c3CCCC4)c2nc1C` [Compound 127], the IC50 (usually the midpoint of a concentration-inhibition curve) at Recombinant MYT1 protein was in the range of 200 to 500 nM.

For the compound `Cc1cc2c(C(N)=O)c(N)n(-c3c(C)c(O)cc4c3CCC4)c2nc1C` [Compound 116], in the data set on MIA PaCa-2 cells [1] (Homo sapiens, MIA PaCa-2, 72 h), the IC50 is > 10 µM.

With `Cc1cc2c(C(N)=O)c(N)n(-c3c(C)c(O)cc4ccccc34)c2nc1C` [Compound 128], on Recombinant MYT1 protein, the IC50 lay within 200 to 500 nM.

Regarding `Cc1cc2c(C(N)=O)c(N)n(-c3c(C)cc4c(c3C)NCC4)c2nc1C` [Compound 151], in the data set with MIA PaCa-2 cells [1] (72 h), the IC50 is > 10 µM.

Regarding `Cc1cc2c(C(N)=O)c(N)n(-c3c(C)cc4cc[nH]c4c3C)c2nc1C` [Compound 153], the IC50 in the data set on MIA PaCa-2 cells [1] (Homo sapiens, MIA PaCa-2, 72 h) was > 10 µM.

On to `Cc1cc2c(C(N)=O)c(N)n(-c3c(C)c(O)cc(F)c3C)c2nc1C` [Compound 3], for which the IC50 in the data set with MIA PaCa-2 cells [1] (Homo sapiens, MIA PaCa-2, 72 h) was > 10 µM; with MIA PaCa-2 cells [2], ≥ 1230 nM.

In the case of `COCCc1ccc(OCC(O)CNC(C)C)cc1` (stereo not drawn) [Metoprolol, reference compound], the “Papp Mean” value in data set [3] (A-B) is recorded as 24.34 10^−6 cm · s^−1; in data set [3] (B-A), 21.29 10^−6 cm · s^−1; in data set [4] (MDCK-MDR1, A-B), 36.96 10^−6 cm · s^−1; in data set [4] (MDCK-MDR1, B-A), 20.14 10^−6 cm · s^−1. For the same compound, the “Papp Sample - 01” value in data set [3] (A-B) is reported as 26.48 10^−6 cm · s^−1; in data set [3] (B-A) it was 18.61 10^−6 cm · s^−1; in data set [4] (MDCK-MDR1, A-B) it was 37.59 10^−6 cm · s^−1; in data set [4] (MDCK-MDR1, B-A), 20.11 10^−6 cm · s^−1. The “Papp Sample - 02” value is 22.20 10^−6 cm · s^−1 in data set [3] (A-B); 23.97 10^−6 cm · s^−1 in data set [3] (B-A); 36.32 10^−6 cm · s^−1 in data set [4] (MDCK-MDR1, A-B); 20.17 10^−6 cm · s^−1 in data set [4] (MDCK-MDR1, B-A).

As to `Cc1cc2c(C(N)=O)c(N)n(-c3c(C)ccc(O)c3C)c2nc1C#N` [Compound 12], the IC50 in the data set with MIA PaCa-2 cells [1] (Homo sapiens, MIA PaCa-2, 72 h) was > 10 µM.

With `Cc1cc2c(C(N)=O)c(N)n(-c3c(C)c(O)cc4c3CCC4)c2nc1C` (atropisomer, axis not shown) [Compound 117], in the data set with MIA PaCa-2 cells [1] (72 h), the IC50 was > 10 µM.

As for `Cc1cc2c(C(N)=O)c(N)n(-c3c(C)ccc(O)c3C)c2nc1C` [RP-6306, reference compound], the IC50 in the data set on MIA PaCa-2 cells [1] (Homo sapiens, MIA PaCa-2, 72 h) turned out to be 9.22 µM. The half-life (commonly how long it takes for the measured level to halve) in data set [5] (female, CD-1, mouse, plasma) was 94.8 min. Also, the F % in data set [5] was 54.7%. The solubility – broadly, the dissolved amount per volume that the medium holds – at 0.5 h in data set [6] (simulated gastric fluid, SGF, initial pH 1.2, 37° C.) is 3860 µg/mL (≈ 11900 µM); in data set [6] (setting [8]), 49 µg/mL (≈ 151 µM); in data set [6] (setting [9]) it was 182 µg/mL (≈ 561 µM); in data set [6] (Water, initial pH 7.7, 37° C.), 13 µg/mL (≈ 40.1 µM). In addition, the “HPLC purity 0.5 h” value in data set [7] (setting [8]) is given as 58.88 %, 220 nm; in data set [7] (setting [9]) it was 74.51 %, 220 nm; in data set [7] (SGF, initial pH 1.2, 37° C.), 98.18 %, 220 nm; in data set [7] (Water, initial pH 7.7, 37° C.), 40.92 %, 220 nm.

`Cc1cc2c(C(N)=O)c(N)n(-c3c(C)cc4c(c3C)NCC4)c2nc1C` [Compound 150]: in the data set on MIA PaCa-2 cells [1] (Homo sapiens, MIA PaCa-2, 72 h), the IC50 was > 10 µM.
